Reference: paper PMC12587545, “Noncytotoxic polymyxin derivatives enhance antibiotic action against multidrug-resistant Gram-negative bacteria” (Antimicrobial Agents and Chemotherapy, 2025)
Several values for one entry are separate records, joined by “and”; a condition that tells them apart may be missing. Identical values can stand only once. Entries after “also recorded” stand apart in the source; their conditions may differ.

Legend:
A. baumannii AB027 = assay: Time-kill kinetics assay
Procedure: Bactericidal and bacteriostatic activity correspond to a ≥ 3 log10 and a < 3 log10 decrease in bacterial load after 24 h relative to the starting inoculum, respectively ([39]).
The time- and concentration-dependent killing of the antibiotic/compound combinations was assessed using the time-kill kinetics assay by following a previously described protocol ([27][–][29]). Bacterial culture grown overnight was diluted in phosphate-buffered saline (PBS) to 0.5 McFarland turbidity and was further diluted 1:50 in LB. Bacterial cultures treated with varying concentrations of antibiotic alone, compound alone, or the combination of antibiotic and compound were incubated in a shaking incubator at 250 rpm and at 37°C. At designated time points, 100 µL aliquots were taken from the culture tubes, serially diluted in PBS, and plated on LB agar plates. The bacterial colonies were then counted after incubation of the plates for 18 h at 37°C.

P. aeruginosa = assay: Checkerboard assay (antibiotic potentiation); format: cell-based, Pseudomonas aeruginosa
P. aeruginosa 259-96916 = assay: Time-kill kinetics assay
E. cloacae = assay: Checkerboard assay (antibiotic potentiation); format: cell-based, Enterobacter cloacae; details: E. cloacae 121887 (colistin-resistant)
[1] = system: MDR Gram-negative bacteria clinical isolates; assay: Checkerboard assay, summary over strains; format: cell-based; details: of all 14 clinical isolates; number (%)
K. pneumoniae = assay: Checkerboard assay (antibiotic potentiation); format: cell-based, Klebsiella pneumoniae; details: K. pneumoniae 113250 (colistin-resistant); antibiotic + compound 1
[2] = 0.5 µg/mL zoliflodacin + 8 µg/mL (5 µM) compound 1
[3] = 8 µg/mL zoliflodacin + 8 µg/mL (5 µM) compound 1
[4] = monotherapy at 8 µg/mL, LB, 37°C, up to 24 h
[5] = zoliflodacin + compound 1, both 8 µg/mL, after 24 h
[6] = P. aeruginosa 262-101856, antibiotic + compound 1
[7] = P. aeruginosa 264-105354, antibiotic + compound 1
[8] = P. aeruginosa PAO1, 0% FBS, zoliflodacin + compound 1
[9] = P. aeruginosa PAO1, [Mg2+] 0.4–0.5 mM, zoliflodacin + compound 1
[10] = P. aeruginosa PAO1, antibiotic + compound 1

## C[C@@H]1CN2c3c(cc4c(N5C(=O)OC[C@@H]5C)noc4c3F)CC3(C(=O)NC(=O)NC3=O)[C@H]2[C@H](C)O1 [Zoliflodacin]
A. baumannii AB027; [2]
  time-kill outcome: appeared to eradicate the bacteria at 8 h; also recorded: slight regrowth after 24 h
A. baumannii AB027; [3]
  time-kill outcome: appeared to eradicate the bacteria at 8 h
A. baumannii AB027; monotherapy at 0.5 µg/mL
  time-kill outcome: growth curves similar to that of untreated bacteria
A. baumannii AB027; [4]
  time-kill outcome: initially decreased bacterial loads, regrowth occurred after 8 h
A. baumannii AB027; [5]
  decrease in bacterial load from the starting inoculum and from the most active monotherapy: ≥ 2 log10
P. aeruginosa; P. aeruginosa 259-96916, antibiotic + compound 1
  Interpretation: Synergy (FIC indices of ≤0.5 is synergistic)
P. aeruginosa; P. aeruginosa 259-96916, antibiotic MIC with 8 µg/mL (5 µM) compound 1
  MICantibiotic + compound: 0.125 µg/mL
P. aeruginosa; P. aeruginosa 259-96916, antibiotic alone
  MICantibiotic: 128 µg/mL
P. aeruginosa; P. aeruginosa 259-96916, of antibiotic by 8 µg/mL (5 µM) compound 1
  Potentiation: ≥1024-fold
P. aeruginosa; [6]
  FIC index: x < 0.078
  Interpretation: Synergy (FIC indices of ≤0.5 is synergistic)
P. aeruginosa; P. aeruginosa 262-101856, antibiotic MIC with 8 µg/mL (5 µM) compound 1
  MICantibiotic + compound: 2 µg/mL
P. aeruginosa; P. aeruginosa 262-101856, antibiotic alone
  MICantibiotic: >128 µg/mL
P. aeruginosa; P. aeruginosa 262-101856, of antibiotic by 8 µg/mL (5 µM) compound 1
  Potentiation: ≥128-fold
P. aeruginosa; [7]
  FIC index: x < 0.066
  Interpretation: Synergy (FIC indices of ≤0.5 is synergistic)
P. aeruginosa; P. aeruginosa 264-105354, antibiotic MIC with 8 µg/mL (5 µM) compound 1
  MICantibiotic + compound: 0.5 µg/mL
P. aeruginosa; P. aeruginosa 264-105354, antibiotic alone
  MICantibiotic: >128 µg/mL
P. aeruginosa; P. aeruginosa 264-105354, of antibiotic by 8 µg/mL (5 µM) compound 1
  Potentiation: ≥512-fold
P. aeruginosa; P. aeruginosa 101243 (colistin-resistant), antibiotic MIC with 8 µg/mL (5 µM) compound 1
  MICantibiotic + compound: >128 µg/mL
P. aeruginosa; P. aeruginosa 101243 (colistin-resistant), antibiotic alone
  MICantibiotic: >128 µg/mL
P. aeruginosa; P. aeruginosa 114228 (colistin-resistant), antibiotic MIC with 8 µg/mL (5 µM) compound 1
  MICantibiotic + compound: >128 µg/mL
P. aeruginosa; P. aeruginosa 114228 (colistin-resistant), antibiotic alone
  MICantibiotic: >128 µg/mL
P. aeruginosa; P. aeruginosa PAO1, 0% FBS, of zoliflodacin by 8 µg/mL (5 µM) compound 1
  Potentiation: ≥32-fold
P. aeruginosa; [8]
  FIC index: x < 0.125
  Interpretation: Synergy (FIC indices of ≤0.5 is synergistic)
P. aeruginosa; P. aeruginosa PAO1, 0% FBS, zoliflodacin MIC with 8 µg/mL (5 µM) compound 1
  MICantibiotic + compound: 8 µg/mL
P. aeruginosa; P. aeruginosa PAO1, 0% FBS, zoliflodacin alone
  MICantibiotic: >128 µg/mL
P. aeruginosa; P. aeruginosa PAO1, 10% FBS, of zoliflodacin by 8 µg/mL (5 µM) compound 1
  Potentiation: 64 fold
P. aeruginosa; P. aeruginosa PAO1, 10% FBS, zoliflodacin + compound 1
  Interpretation: Synergy (FIC indices of ≤0.5 is synergistic)
P. aeruginosa; P. aeruginosa PAO1, 10% FBS, zoliflodacin MIC with 8 µg/mL (5 µM) compound 1
  MICantibiotic + compound: 8 µg/mL
P. aeruginosa; P. aeruginosa PAO1, 10% FBS, zoliflodacin alone
  MICantibiotic: 512 µg/mL
P. aeruginosa; P. aeruginosa PAO1, 25% FBS, of zoliflodacin by 8 µg/mL (5 µM) compound 1
  Potentiation: 1 fold
P. aeruginosa; P. aeruginosa PAO1, 25% FBS, zoliflodacin + compound 1
  Interpretation: Additive (0.5 < × ≤ 4 is additive)
P. aeruginosa; P. aeruginosa PAO1, 25% FBS, zoliflodacin MIC with 8 µg/mL (5 µM) compound 1
  MICantibiotic + compound: 1024 µg/mL
P. aeruginosa; P. aeruginosa PAO1, 25% FBS, zoliflodacin alone
  MICantibiotic: 1024 µg/mL
P. aeruginosa; P. aeruginosa PAO1, 50% FBS, of zoliflodacin by 8 µg/mL (5 µM) compound 1
  Potentiation: 1 fold
P. aeruginosa; P. aeruginosa PAO1, 50% FBS, zoliflodacin + compound 1
  Interpretation: Additive (0.5 < × ≤ 4 is additive)
P. aeruginosa; P. aeruginosa PAO1, 50% FBS, zoliflodacin MIC with 8 µg/mL (5 µM) compound 1
  MICantibiotic + compound: 1024 µg/mL
P. aeruginosa; P. aeruginosa PAO1, 50% FBS, zoliflodacin alone
  MICantibiotic: 1024 µg/mL
P. aeruginosa; P. aeruginosa PAO1, [Mg2+] 25 mM, of zoliflodacin by 8 µg/mL (5 µM) compound 1
  Potentiation: 1 fold
P. aeruginosa; P. aeruginosa PAO1, [Mg2+] 25 mM, zoliflodacin + compound 1
  Interpretation: Additive (0.5 < × ≤ 4 is additive)
P. aeruginosa; P. aeruginosa PAO1, [Mg2+] 25 mM, zoliflodacin MIC with 8 µg/mL (5 µM) compound 1
  MICantibiotic + compound: 1024 µg/mL
P. aeruginosa; P. aeruginosa PAO1, [Mg2+] 25 mM, zoliflodacin alone
  MICantibiotic: 1024 µg/mL
P. aeruginosa; P. aeruginosa PAO1, [Mg2+] 0.4–0.5 mM, of zoliflodacin by 8 µg/mL (5 µM) compound 1
  Potentiation: ≥32-fold
P. aeruginosa; [9]
  FIC index: x < 0.125
  Interpretation: Synergy (FIC indices of ≤0.5 is synergistic)
P. aeruginosa; P. aeruginosa PAO1, [Mg2+] 0.4–0.5 mM, zoliflodacin MIC with 8 µg/mL (5 µM) compound 1
  MICantibiotic + compound: 8 µg/mL
P. aeruginosa; P. aeruginosa PAO1, [Mg2+] 0.4–0.5 mM, zoliflodacin alone
  MICantibiotic: >128 µg/mL
P. aeruginosa; [10]
  FIC index: x < 0.125
  Interpretation: Synergy (FIC indices of ≤0.5 is synergistic)
P. aeruginosa; P. aeruginosa PAO1, antibiotic + compound 3
  Interpretation: Additive (0.5 < × ≤ 4 is additive)
P. aeruginosa; P. aeruginosa PAO1, antibiotic MIC with 8 µg/mL (5 µM) compound 1
  MICantibiotic + compound: 8 µg/mL
P. aeruginosa; P. aeruginosa PAO1, antibiotic MIC with 8 µg/mL (5 µM) compound 3
  MICantibiotic + compound: 128 µg/mL
P. aeruginosa; P. aeruginosa PAO1, antibiotic alone
  MICantibiotic: 128 µg/mL and >128 µg/mL
P. aeruginosa; P. aeruginosa PAO1, of antibiotic by 8 µg/mL (5 µM) compound 1
  Potentiation: ≥32-fold
P. aeruginosa; P. aeruginosa PAO1, of antibiotic by 8 µg/mL (5 µM) compound 3
  Potentiation: 1 fold
P. aeruginosa 259-96916; [2]
  time-kill outcome: bacteriostatic effect
P. aeruginosa 259-96916; [3]
  time-kill outcome: complete sterilization was achieved after 24 h
P. aeruginosa 259-96916; [4]
  time-kill outcome: growth curve similar to that of untreated bacteria
P. aeruginosa 259-96916; [5]
  decrease in bacterial load from the starting inoculum and from the most active monotherapy: ≥ 2 log10
E. cloacae; antibiotic + compound 1
  Interpretation: Synergy (FIC indices of ≤0.5 is synergistic)
E. cloacae; antibiotic MIC with 8 µg/mL (5 µM) compound 1
  MICantibiotic + compound: 4 µg/mL
E. cloacae; antibiotic alone
  MICantibiotic: 32 µg/mL
E. cloacae; of antibiotic by 8 µg/mL (5 µM) compound 1
  Potentiation: 8 fold
[1]
  clinical isolates in which the antibiotic was synergized by compound 1: 12 (86%) strains
K. pneumoniae
  Interpretation: Synergy (FIC indices of ≤0.5 is synergistic)
